{
  "source": "patent US20240238268A1",
  "about": "“TREATMENTS AND METHODS FOR TREATING ALZHEIMER'S DISEASE” (Board of Supervisors of Louisiana State University and …, priority 2021, published 2024)",
  "type_in_all_cases": "in vivo, mouse",
  "key": {"NOTCH1": {"test_system": "NOTCH1", "experiment": "NOTCH1 protein level in brain, capillary-based immunoassay", "details": "aged C57 female mice; 10 mg/kg, IP, 7 days", "procedure": "NOTCH1 protein level in cortex, FIG. 13A, and hippocampus, FIG. 13B, was decreased in aged 3xTg-AD female mice v. male counterparts. Treatment with specific PRMT4 specific inhibitor (TP-064, 30 mg/kg, 7 days, IP) or AAV knockdown of PRMT4 enhanced NOTCH1 protein level in cortex, […], and hippocampus, […], in aged 3xTg-AD female mice. Relative NOTCH1 protein (˜110 kDa) level was measured by capillary-based immunoassay and normalized to total protein. * p<0.05 v. control male mice evaluated by unpaired t-test in FIGS. 13A and 13B. * p<0.05 compared to C57, #p<0.05 compared to 3xTg-AD+TP-064, $p<0.05 compared to 3xTg-AD+AAV, evaluated by one-way ANOVA with Tukey's post-hoc analyses in FIGS. 13C and 13D.\n(§1) FIGS. 16A-16G show NOTCH1 inhibition (via crenigacestat) decreased ZO-1 and occluding and AAV knockdown of PRMT4 enhanced ZO-1 and occludin. […] C57 female mice. FIGS. 16B and 16C show crenigacestat (10 mg/kg, IP, 7 days) reduced NOTCH1 (110 kDa) protein level in the cortex and hippocampus of aged C57 female mice. AAV knockdown of PRMT4 increased NOTCH1 protein level. FIGS. 16D-16G show ZO-1 (220 kDa), and occludin (60 kDa) tight junctional proteins were decreased in the cortex and hippocampus in presence of NOTCH1 inhibitor in C57. PRMT4-AAV increased the expression of ZO-1 and occludin in aged 3xTg-AD female mice. Protein level was measured by capillary-based immunoassay and normalized to total protein. * p<0.05 compared to C57, #p<0.05 compared to 3xTg-AD, $p<0.05 compared to 3xTg-AD+AAV as evaluated by one-way ANOVA with Tukey's post-hoc analyses.\nCapillary-phoresis immunoassay via ProteinSimple®: Quantification of all protein targets was achieved using Simple Western analysis in a Jess™ apparatus per the manufacturer's protocol (ProteinSimple, Bio-techne, Minneapolis, MN). […] Following homogenization and centrifugation (10,000×g, 5 min, 4° C.), protein concentration was determined in tissue protein supernatant samples using DC Protein Assay (Cat. No. 5000112, Bio-Rad Laboratories, Hercules, California) according to manufacturer instructions. […] Antibody diluent (ProteinSimple, Bio-techne, Minneapolis, MN) was used for all antibody dilutions as follows: PRMT4 (1:50, RRID: AB_2068436), PRMT6 (1:100, Cell Signaling Technology cat. 14641), eNOS (1:200, RRID: AB_10850618), nNOS (1:100, RRID: AB_2152488), iNOS (1:100, RRID: AB_10000625), DDAH2 (1:50, RRID: AB_2640442) Antibodies were detected using HRP-conjugated secondary anti-rabbit, and -mouse. Relative protein levels were calculated by measuring the area under the peak of a chemiluminescent chromatogram and normalized to total capillary chemiluminescence for a given sample. […]"}, "ZO-1": {"test_system": "ZO-1", "experiment": "ZO-1 tight junction protein level in brain, capillary-based immunoassay", "details": "C57 mice; 10 mg/kg, IP, 7 days", "procedure": "as §1\n(§2) Capillary-phoresis immunoassay via ProteinSimple®: Quantification of all protein targets was achieved using Simple Western analysis in a Jess™ apparatus per the manufacturer's protocol (ProteinSimple, Bio-techne, Minneapolis, MN). […] Following homogenization and centrifugation (10,000×g, 5 min, 4° C.), protein concentration was determined in tissue protein supernatant samples using DC Protein Assay (Cat. No. 5000112, Bio-Rad Laboratories, Hercules, California) according to manufacturer instructions. […]"}, "occludin": {"test_system": "occludin", "experiment": "Occludin tight junction protein level in brain, capillary-based immunoassay", "details": "C57 mice; 10 mg/kg, IP, 7 days", "procedure": "as §1, §2"}, "C57 mice": {"test_system": "C57 mice", "experiment": "Neurovascular coupling: microvessel diameter, two-photon laser scanning microscopy, C57 mice", "details": "10 mg/kg, 7 days, IP"}},
  "data": [
    {"compound": "C[C@H](NC(=O)CCC(F)(F)F)C(=O)N[C@@H]1C(=O)N(CCO)c2ncccc2-c2ccccc21", "note": "[Crenigacestat]", "values": [
      {"measurement": "NOTCH1 protein level in cortex", "setting": "NOTCH1", "result": "reduced"},
      {"measurement": "NOTCH1 protein level in hippocampus", "setting": "NOTCH1", "result": "reduced"},
      {"measurement": "ZO-1 protein level in cortex", "setting": "ZO-1", "result": "decreased"},
      {"measurement": "ZO-1 protein level in hippocampus", "setting": "ZO-1", "result": "decreased"},
      {"measurement": "occludin protein level in cortex", "setting": "occludin", "result": "decreased"},
      {"measurement": "occludin protein level in hippocampus", "setting": "occludin", "result": "decreased"},
      {"measurement": "microvessel diameter", "setting": "C57 mice", "result": "decrease"}
    ]}
  ]
}
